Measurements: US12630512B2, “Agents for differentiating stem cells and treating cancer” (Minerva Biotechnologies Corporation, priority 2017, dated 2026)

Experiments:
human fibroblasts = assay: Effect on fibroblasts as surrogate for normal cells; format: cell-based; details: fibroblasts as surrogate for normal cells; 6 uM
Description: However, fibroblasts are more differentiated than stem cells but are able to self-replicate for defined periods of time. We tested selected compounds of the invention to determine if these compounds were just cytotoxic or if they selectively affected stem cells and, importantly, cancer cells, but not normal, healthy cells. Here, we used fibroblasts as a surrogate for normal cells. […] […] Each compound was scored for its effect on fibroblast proliferation where “+” indicates 25% inhibition of fibroblast growth, “++” 50% inhibition and “+++” 75% inhibition of growth.

T47D breast cancer cells = assay: Cancer cell migration assay (wound healing / Platypus); format: cell-based, human; details: cell line not given, FIGS. 65-80 use T47D, 120 hours; for IC50: Homo sapiens, read-out: IC50 of inhibition of cancer cell migration
Description: Potent cancer cell migration is characteristic of cancer cell invasion of other tissues and of metastasis. Typical migration assays involve coating a cell culture plate with fibronectin, collagen or the like, plating cancer cells and making a scar across through the cells and measuring the time it takes for the cancer cells to invade the void space. An alternative approach that gives more reliable data is the Platypus System which is a special multi-well cell culture plate with a juxtaposed set of plugs that block off a circle in the center of each well. Cancer cells are plated while the plugs are in place, then they are removed after the cells attach to the plate surface. […] In our cancer cell migration assays, the number of cells that have migrated into the empty space is quantified using Image J software. The effects of known anti-migration compounds are compared to the anti-MUC1* Fab E6 and the first few small molecule leads. The effect of two novel small molecules MN1186 and MN1194, compared to the known anti-migration molecule SU11274, is shown in FIG. 22A-22U. FIG. 22V is a graph showing the measured inhibition of cancer cell migration at time 0, 24 hours or 48 hours for a number of compounds. […] FIG. 22X is a graph showing how IC50's of the small molecules of the invention were measured and calculated.
Percent inhibition of cancer cell migration was performed in a wound healing assay. The percent area that the invading cancer cells occupied, in the presence of a drug candidate compared to the controls, was quantified by Image J cell software which enables cell counting from photographs. IC50's were calculated by performing migration experiments at several compound concentrations and then applying Hill's equation. Inhibition of cancer cell proliferation was quantified by automated cell counting in the presence or absence of a drug candidate. Here, the inhibition of cancer cell proliferation was scored 1 if proliferation was inhibited by 25%, 2 if inhibited by […] and 4 for the highest degree of inhibition of proliferation, and 0 for the lowest. The effect of the drug candidates on stem cell pluripotency or proliferation was scored by eye, based on cell morphology and cell density, with 0 being no change in morphology or cell number and 4 being the most profound effect, with the stem cells taking on the morphology of a differentiating cell, along with much fewer cells indicative of inhibition of proliferation. As an example, FIGS. 30A-30F show photographs of naïve stem cell, primed stem cell and fibroblast controls. FIGS. 31A-31F show the effect of compounds of the invention on naïve state stem cells, where the number of ‘+’ signs indicates the score from 0-4 of ability of compound to inhibit pluripotency, proliferation of naïve stem cells or ability to induce their differentiation. […] FIGS. 36-44 and 65-87 show photographs and IC50 graphs of the compounds of the invention, inhibiting cancer cell migration and invasion. Cancer cell migration is a hallmark of metastatic cancer.
For the cancer cell migration experiment cancer cells were plated at varying densities into an Oris Cell Migration Assay Collagen-1 coated 96-well plate (Platypus Technologies LLC, Madison, WI). The Collagen-1 coated 96-well plate incorporates a specific vacuum plug which attaches to the bottom of each well, creating an area in which the cells cannot grow into. Once the cells have been plated at high densities into each well, they are allotted an 18-24 hour time period to attach to the bottom of the wells. Post-24 hour plugs are removed from the plate and then small molecule analogs are added to the wells. Images are taken of each well and represent time 0 (T=0) for each well. Images are taken of the wells at the 24, 48, 72, 96 and 120 hour time points. Data analysis is conducted using the images taken at these specific time point. […]

micro-RNA-145 = assay: RT-PCR measurement of miR-145 in naïve state stem cells; format: cell-based, human; details: treated for 72 hours (FIG. 91A-91C)
Protocol: FIGS. 91A-91C show graphs of RT-PCR measurement of naïve state stem cells treated for 72 hours with compounds of the invention at the indicated concentrations, wherein the gene that is measured is micro-RNA-145, which is a harbinger of stem cell differentiation.
We used RT-PCR to measure changes in the expression of some of these super-enhancer genes, AXIN2, which is a surrogate for activated β-catenin, miR-145, MUC1 and MUC1* ligands NME7AB and NME7-X1. […] Thus, compounds of the invention, at least in part, inhibit tumor cell migration and invasiveness by inducing expression of genes that are critical for differentiation, some of which are super-enhancer target genes, and miR-145, while decreasing expression of β-catenin, MUC1 and its growth factor NME7AB. Novel compounds of the invention are powerful agents for the treatment or prevention of cancers and metastatic cancers. […] In one aspect of the invention, a biological sample from a patient is tested for the presence of MUC1*, NME7AB or NME7-X1, and upon finding that the patient's cancer is positive for MUC1*, NME7AB or NME7-X1, a compound of the invention is administered to the patient in an amount suitable to prevent or treat the cancer. In one instance, the patient sample is subjected to a test, such as PCR, to determine the amount of nucleic acid that encodes MUC1, NME7 or NME7-X1. […] In another aspect of the invention, the patient's cancer is considered to be MUC1* positive, NME7AB positive or NME7-X1 positive if expression of those genes is equal to or greater than 0.5% of EEF1A1 expression in those cells. In yet another aspect of the invention, the patient's cancer is considered to be MUC1* positive if the patient's tissue specimen is contacted with an antibody that binds to the PSMGFR peptide or the N-10 peptide and stains the tissue with a pathologist's standard score 1-4 (“+−++++”). […]

SMILES	effect on fibroblast cells (human fibroblasts)	IC50 (T47D breast cancer cells) [nM]	inhibited cancer cell migration (T47D breast cancer cells) [%]	expression of miR-145 in naïve state stem cells (micro-RNA-145)
CN(CC1CCC(C(=O)N2CCC(c3ccncc3)CC2)CC1)C(=O)OC(C)(C)C (stereo not drawn) [MN1428, Tert-butyl methyl((4-(4-(pyridin-4-yl)piperidine-1-carbonyl)cyclohexyl)methyl)carbamate]	no effect	7	79	increased expression of miR-145
CN(C[C@H]1CC[C@H](C(=O)N2CCc3c([nH]c4ccccc34)C2C2CC2)CC1)C(=O)NC(C)(C)C (stereo partly drawn) [MN1413]	no effect	10	83	increased expression of miR-145
C[C@@H]1Cc2c([nH]c3ccccc23)CN1C(=O)C1CCC(CN(C)C(=O)NC(C)(C)C)CC1 (stereo partly drawn) [MN1423]	no effect	12	84	increased expression of miR-145
